Assay results published in US4840947A, “Antiinflammatory and analgesic piperidin-4-yl-tetracyclic benzodiazepines and use thereas” (Hoechst-Roussel Pharmaceuticals, Inc., priority 1986, dated 1989).
Read-outs that look alike come from different tables or passages of the source.

Tests used:
[1] = tested on: 2-phenyl-1,4-benzoquinone induced writhing in mice; test: Phenylquinone Induced Writhing in Mice (2-phenyl-1,4-benzoquinone, analgesia); assay type: in vivo, mouse; conditions: for Percent Inhibition of phenylquinone induced writhing: at 20 mg/kg; for ED50: Mus musculus, sc, read-out: ED50, inhibition of phenylquinone induced writhing
[2] = tested on: carrageenan-induced rat paw edema; test: Inhibition of Carrageenan-Induced Rat Paw Edema; assay type: in vivo; conditions: for ED50: po; for Percent Inhibition of carrageenan-induced rat paw edema: at 100 mg/kg, p.o.
[3] = tested on: adjuvant-induced polyarthritis in rats; test: Adjuvant-Induced Polyarthritis In Rats; assay type: in vivo, rat (male Charles River-Wistar Lewis); conditions: rat, p.o.; for ED50: po; for percent inhibition of paw volume, adjuvant-treated paw / percent inhibition of paw volume, non-injected paw: at 50 mg/kg
Method: This activity was measured by a procedure similar to that described by C.
Groups of 10 male Charles River-Wistar Lewis rats weighing 150 to 175 g were individually housed and maintained on a regular rat chow diet. Water was given ad libitum. The adjuvant was prepared by suspending 75 mg of Mycobacterium butyricum (Difco Laboratories, Detroit, Mich.) in 10 ml of white paraffin oil with continuous stirring for 2 hours at room temperature prior to administration. Test compounds are prepared by suspending the drug in water, adding one drop of Tween 80 per 10 ml of suspension, and homogenizing. The adjuvant suspension (0.1 ml) was injected into the footpad of the left hind paw of the rat. Test compound suspensions were administered orally (10 ml/kg) the day before adjuvant suspension injection and the administration was continued for 21 days. One group of ten rats was used for the test drug. Standard, adjuvant-injected control and non-injected control groups are run along with the test drug. Control animals received vehicle (10 ml/kg). Three doses of test drug and one dose of standard preparation were used. Injected and non-injected paw volumes were determined on the day the adjuvant suspension was given, and on subsequent days thereafter (usually days 5, 10, 18, and 21) by the method of C. A. Winter, et al., Proc. Soc.
The percent inhibition of paw volume (injected and non-injected hind paw) was calculated by the following formula: [formula]

[4] = adjuvant-treated (injected) paw, read-out: ED50 (50% inhibition of paw volume), adjuvant-treated paw
[5] = non-injected paw, read-out: ED50 (50% inhibition of paw volume), non-injected paw
[6] = adjuvant-treated (injected) paw

Structure (SMILES): CCO.CN1CCC(C2Nc3ccccc3N3CCc4cc(Br)cc2c43)CC1 (stereo not shown) [4-Bromo-6-(1-methylpiperidin-4-yl)-1,2,6,7-tetrahydrobenzo[b]pyrrolo[3,2,1-jk][1,4]benzodiazepine ethanolate]
- Percent Inhibition of phenylquinone induced writhing ([1]; mice, s.c.): 47%

Structure (SMILES): CCO.CN1CCC(C2Nc3ccccc3N3CCc4cccc2c43)CC1.O=C(O)/C=C/C(=O)O (stereo not shown) [6-(1-Methylpiperidin-4-yl)-1,2,6,7-tetrahydrobenzo[b]pyrrolo[3,2,1-jk][1,4]benzodiazepine fumarate ethanolate]
- ED50 [2]: 41.5 mg/kg
- ED50 [3, 4]: 73.6 mg/kg
- ED50 [3, 5]: 18.5 mg/kg
- Percent Inhibition of phenylquinone induced writhing ([1]; mice, s.c.): 51%

Structure (SMILES): CN1CCC(C2c3cccc4c3N(CC4)c3ccccc3N2C(=O)OCC(Cl)(Cl)Cl)CC1 (stereo not shown) [6-(1-Methylpiperidin-4-yl)-1,2,6,7-tetrahydrobenzo[b]pyrrolo[3,2,1-jk][1,4]benzodiazepine-7-carboxylic acid, 2,2,2-trichloroethyl ester]
- Percent Inhibition of carrageenan-induced rat paw edema [2]: 44%

Structure (SMILES): CN1CCC(C2Nc3ccccc3N3CCCc4cccc2c43)CC1 (stereo not shown) [7-(1-Methyl-4-piperidinyl)-2,3,7,8-tetrahydro-1H-quino[1,8-ab][1,5]benzodiazepine hemifumarate hemihydrate]
- Percent Inhibition of carrageenan-induced rat paw edema [2]: 21%
- percent inhibition of paw volume, adjuvant-treated paw [3, 6]: 39%
- percent inhibition of paw volume, non-injected paw ([3]; non-injected paw): 79%
- Percent Inhibition of phenylquinone induced writhing ([1]; mice, s.c.): 27%

Structure (SMILES): CN1CCC(C2c3cccc4c3N(CC4)c3ccccc3N2C=O)CC1.O=CO (stereo not shown) [7-Formyl-6-(1-methylpiperidin-4-yl)-1,2,6,7-tetrahydrobenzo[b]pyrrolo[3,2,1-jk][1,4]benzodiazepine formate]
- ED50 ([1]; mice, s.c.): 0.9 mg/kg

Structure (SMILES): CN1CCC(C2c3cccc4c3N(CC4)c3ccccc3N2C)CC1 (stereo not shown) [7-Methyl-6-(1-methylpiperidin-4-yl)-1,2,6,7-tetrahydrobenzo[b]pyrrolo[3,2,1-jk][1,4]benzodiazepine]
- ED50 ([1]; mice, s.c.): 2.6 mg/kg

Structure (SMILES): CN1CCC(C2Nc3cc(Br)ccc3N3CCc4cccc2c43)CC1 (stereo not shown) [9-Bromo-6-(1-methylpiperidin-4-yl)-1,2,6,7-tetrahydrobenzo[b]pyrrolo[3,2,1-jk][1,4]benzodiazepine]
- Percent Inhibition of carrageenan-induced rat paw edema [2]: 40%
- ED50 [3, 4]: 112 mg/kg
- ED50 [3, 5]: 3.6 mg/kg

Structure (SMILES): CN1CCC(C2Nc3cc(F)ccc3N3CCc4cccc2c43)CC1 (stereo not shown) [9-Fluoro-6-(1-methylpiperidin-4-yl)-1,2,6,7-tetrahydrobenzo[b]pyrrolo[3,2,1-jk][1,4]benzodiazepine]
- percent inhibition of paw volume, adjuvant-treated paw [3, 6]: 48%
- percent inhibition of paw volume, non-injected paw ([3]; non-injected paw): 116%
- Percent Inhibition of phenylquinone induced writhing ([1]; mice, s.c.): 35%

Structure (SMILES): CCCCC1C(=O)N(c2ccccc2)N(c2ccccc2)C1=O [Phenylbutazone, reference compound]
- ED50 [2]: 50 mg/kg
- ED50 [3, 4]: 14 mg/kg
- ED50 [3, 5]: 9.4 mg/kg

Structure (SMILES): CCC(=O)O[C@](Cc1ccccc1)(c1ccccc1)[C@H](C)CN(C)C [Propoxyphene, reference compound]
- ED50 [1]: 3.9 mg/kg
